Source: patent US6444467B1, “Process for production and subsequent ex vitro sowing and propagation of pre-germinated plant somatic embryos” (Cellfor Inc., priority 1998, dated 2002)

System: spruce somatic embryos
Experiment: ex vitro re-germination of desiccated, pre-germinated spruce somatic embryos after ABA treatment
Format: in vivo
Conditions: 90 min in darkness
Source text: Somatic embryos of interior spruce (Picea glauca (Moench) Voss x P. engelmannii Parry ex Engelm.) lines I-1026, and 10-1418 were produced and dried with a high-relative-humidity treatment (HRHT) according to the methods of Roberts et al. (1990a; 1990b) and Webster et al. (1990).
Two groups of dried embryos for each of the two genotypes, were germinated on Whatman #1 filter paper on a thin layer of cotton in polycarbonate boxes. The liquid germination medium was modified GMD medium (NH4^+—N/NO3^−—N ratio was 1.4; phosphate concentration was 6 mM; 3% sucrose). After the embryos were sown onto the filter paper, the liquid level in the germination boxes was adjusted to provide a liquid film surrounding the surface of embryos situated at the interface with the solid support. The boxes were sealed with Parafilm and placed in a controlled environment room with the temperature maintained at a constant 23° C.
The first group of somatic embryos was germinated for 7 days after which, the polycarbonate boxes containing the germinants were transferred into refrigerated storage (i.e., temperatures were within a range of 8-12° C.) for 72 hours. The germinants were then removed from the cold treatment and subsequently received the various ABA treatments described below. The germinants which received the cold treatment are hereafter referred to as “stored germinants” .
This group of germinants is referred to hereafter as “fresh germinants”.
The stored and fresh germinants of each genotype were carefully paired into four groups, on wetted paper towel disks in separate 10 cm Petri dishes and received four ABA treatments, said ABA treatments being concentrations of 0, 5, 10, 20 μM, respectively. The ABA treatments were applied in darkness for 90 min.
After the completion of the ABA treatments, the somatic germinants were blot-dried on paper towels. The germinants were then transferred to fresh 5 cm Petri dish. The dishes, two per drying chamber, were placed in drying chambers containing a saturated KCl solution, which provided an atmospheric humidity of 85% RH over the liquid surface in a sealed chamber at 20° C. The somatic germinants were dried for 24 hr in a refrigerated room maintained between 5-8° C. after which, the drying chambers were transferred into a controlled environment room maintained at 20° C. for another 15 h.
The dried germinants were sown into 288-cavity miniplug trays (TLC Polyform Inc,. Plymouth Minn., USA, 55441) filled with a peat-based soilless mix comprised of 60% peat and 40% coarse horticultural vermiculite. Each germinant type of each genotype in each ABA treatment was randomly sown into 5 minitrays in blocks of 20 germinants. After sowing, the germinants were covered with a thin layer of coir (1993 Crystal Co., St. Louis, Mo., USA). The trays were wrapped in black plastic bags for 18 hrs to allow slow rehydration of germinants. Then, the trays were misted with a modified GMD nutrient solution (Webster et al., 1990) containing 3% sucrose until the soilless mix and coir became well wetted. The trays were placed in two misting chambers in a controlled environment germination room under light reduced by a 50% shade cloth for the first week. The shade cloth was removed at the end of the first week and the germinants were exposed to a light intensity of 180 μmol m^−2s^−1 photosynthetic photon flux. The chambers were frequently misted to keep the soilless mix moistened. Modified GMD solution with 3% sucrose was sprayed onto the germinants daily. After 7 days, germinants were fertilized weekly with 20-20-20 fertilizer (Plant Products Ltd., Brampton, ON, Canada) to deliver the equivalent of 100 ppm N.

Q: Which “Re-germination success (%)” value (genotype 10-1418, "fresh" germinants, ABA 5 μM) does the source give for CC1=CC(=O)CC(C)(C)[C@@]1(O)/C=C/C(C)=C\C(=O)O [ABA, abscisic acid] here?
A: Its value is 53.8%.

Q: And the “Re-germination success (%)” value (genotype 10-1418, "fresh" germinants, ABA 10 μM)?
A: The value was 16.6%.

Q: What about the “Re-germination success (%)” value (genotype 10-1418, "fresh" germinants, ABA 20 μM) of the same molecule?
A: The value was 29.8%.

Q: What about the “Re-germination success (%)” value (genotype 10-1418, "stored" germinants, ABA 5 μM) of the same molecule?
A: The value was 59.8%.

Q: And the “Re-germination success (%)” value (genotype 10-1418, "stored" germinants, ABA 10 μM)?
A: Its value is 57.5%.

Q: What about the “Re-germination success (%)” value (genotype 10-1418, "stored" germinants, ABA 20 μM) of the same molecule?
A: The value was 60.0%.

Q: And the “Re-germination success (%)” value (genotype I-1026, "fresh" germinants, ABA 5 μM)?
A: Its value is 35.0%.

Q: What about the “Re-germination success (%)” value (genotype I-1026, "fresh" germinants, ABA 10 μM) of the same molecule?
A: The value was 53.3%.

Q: What about the “Re-germination success (%)” value (genotype I-1026, "fresh" germinants, ABA 20 μM) of the same molecule?
A: The value was 48.2%.

Q: What about the “Re-germination success (%)” value (genotype I-1026, "stored" germinants, ABA 5 μM) of the same molecule?
A: The value was 71.8%.

Q: What about the “Re-germination success (%)” value (genotype I-1026, "stored" germinants, ABA 10 μM) of the same molecule?
A: Its value is 74.3%.

Q: And the “Re-germination success (%)” value (genotype I-1026, "stored" germinants, ABA 20 μM)?
A: Its value is 73.5%.
